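The compound was tested at five concentrations on cells cultured in 96-well plates, with a 48-hour exposure period. GI50 = concentration required for 50% inhibition of growth.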 Activity calls are given as the source filed them. Cut-off read from the data, not from the text of the source: active = GI50 up to about 1.1 µM and inactive = higher.
Assays:
Assay in all cases: DTP human tumour cell line panel, 48 h
MOLT-4 = system: MOLT-4
786-0 = system: 786-0
OVCAR-3 = system: OVCAR-3
SK-OV-3 = system: SK-OV-3
NCI/ADR-RES = system: NCI/ADR-RES
MDA-N = system: MDA-N
HCT-15 = system: HCT-15
SK-MEL-2 = system: SK-MEL-2
LXFL 529 = system: LXFL 529
SK-MEL-28 = system: SK-MEL-28
SF-539 = system: SF-539
M19-MEL = system: M19-MEL
CCRF-CEM = system: CCRF-CEM
ACHN = system: ACHN
RPMI-8226 = system: RPMI-8226
UO-31 = system: UO-31
KM12 = system: KM12
MDA-MB-231 = system: MDA-MB-231
TK-10 = system: TK-10
HCT-116 = system: HCT-116
KM-20L2 = system: KM-20L2
UACC-62 = system: UACC-62
A549 = system: A549
NCI-H226 = system: NCI-H226
U-251 = system: U-251
BT-549 = system: BT-549
DLD-1 = system: DLD-1
MDA-MB-435 = system: MDA-MB-435
DU-145 = system: DU-145
SR = system: SR
HOP-18 = system: HOP-18
Hs-578T = system: Hs-578T
LOX IMVI = system: LOX IMVI
OVCAR-4 = system: OVCAR-4
SNB-19 = system: SNB-19
HOP-92 = system: HOP-92
SN12C = system: SN12C
RXF 393 = system: RXF 393
UACC-257 = system: UACC-257
HOP-62 = system: HOP-62
OVCAR-8 = system: OVCAR-8
NCI-H23 = system: NCI-H23
M14 = system: M14
A498 = system: A498
HCC 2998 = system: HCC 2998
HL-60 = system: HL-60
MCF7 = system: MCF7
CAKI-1 = system: CAKI-1
NCI-H460 = system: NCI-H460
SF-268 = system: SF-268
Malme-3M = system: Malme-3M
DMS-114 = system: DMS-114
IGROV-1 = system: IGROV-1
EKVX = system: EKVX
SNB-75 = system: SNB-75
SF-295 = system: SF-295
XF498 = system: XF498
SK-MEL-5 = system: SK-MEL-5
PC-3 = system: PC-3
HT-29 = system: HT-29
SW-620 = system: SW-620
NCI-H522 = system: NCI-H522
SNB-78 = system: SNB-78
K562 = system: K562
OVCAR-5 = system: OVCAR-5
COLO 205 = system: COLO 205

Compound: COc1ccc(/C=C2\CCC(CN(C)C)C2=O)cc1 (stereo unspecified)
- GI50 (MOLT-4): 1.83 µM (inactive)
- GI50 (786-0): 1.65 µM (inactive)
- GI50 (OVCAR-3): 4.12 µM (inactive)
- GI50 (SK-OV-3): 17.6 µM (inactive)
- GI50 (NCI/ADR-RES): 2.36 µM (inactive)
- GI50 (MDA-N): 3.44 µM (inactive)
- GI50 (HCT-15): 2.29 µM
- GI50 (SK-MEL-2): 7.87 µM (inactive)
- GI50 (LXFL 529): 2.05 µM (inactive)
- GI50 (SK-MEL-28): 5.75 µM (inactive)
- GI50 (SF-539): 7.83 µM (inactive)
- GI50 (M19-MEL): 8.71 µM (inactive)
- GI50 (CCRF-CEM): 2.26 µM (inactive)
- GI50 (ACHN): 9.77 µM (inactive)
- GI50 (RPMI-8226): 0.832 µM (active)
- GI50 (UO-31): 8.59 µM (inactive)
- GI50 (KM12): 8.26 µM (inactive)
- GI50 (MDA-MB-231): 1.99 µM (inactive)
- GI50 (TK-10): 5.98 µM (inactive)
- GI50 (HCT-116): 2.29 µM (inactive)
- GI50 (KM-20L2): 17.1 µM (inactive)
- GI50 (UACC-62): 8.91 µM (inactive)
- GI50 (A549): 12.2 µM (inactive)
- GI50 (NCI-H226): 16.3 µM (inactive)
- GI50 (U-251): 18.3 µM (inactive)
- GI50 (BT-549): 3.26 µM (inactive)
- GI50 (DLD-1): 3.62 µM (inactive)
- GI50 (MDA-MB-435): 1.88 µM (inactive)
- GI50 (DU-145): 2.94 µM (inactive)
- GI50 (SR): 1.26 µM (inactive)
- GI50 (HOP-18): 6.85 µM (inactive)
- GI50 (Hs-578T): 3.82 µM (inactive)
- GI50 (LOX IMVI): 1.93 µM (inactive)
- GI50 (OVCAR-4): 8.34 µM (inactive)
- GI50 (SNB-19): 10.3 µM (inactive)
- GI50 (HOP-92): 6.1 µM (inactive)
- GI50 (SN12C): 5.83 µM (inactive)
- GI50 (RXF 393): 2.94 µM (inactive)
- GI50 (UACC-257): 3.75 µM (inactive)
- GI50 (HOP-62): 12.2 µM (inactive)
- GI50 (OVCAR-8): 3.24 µM (inactive)
- GI50 (NCI-H23): 7.91 µM (inactive)
- GI50 (M14): 2.54 µM (inactive)
- GI50 (A498): 15 µM (inactive)
- GI50 (HCC 2998): 8.13 µM (inactive)
- GI50 (HL-60): 1.02 µM (active)
- GI50 (MCF7): 1.95 µM (inactive)
- GI50 (CAKI-1): 2.4 µM (inactive)
- GI50 (NCI-H460): 16.6 µM (inactive)
- GI50 (SF-268): 9.71 µM (inactive)
- GI50 (Malme-3M): 4.92 µM (inactive)
- GI50 (DMS-114): 5.98 µM (inactive)
- GI50 (IGROV-1): 8.47 µM (inactive)
- GI50 (EKVX): 17.8 µM (inactive)
- GI50 (SNB-75): 12.4 µM (inactive)
- GI50 (SF-295): 17.9 µM (inactive)
- GI50 (XF498): 4.21 µM (inactive)
- GI50 (SK-MEL-5): 8.69 µM (inactive)
- GI50 (PC-3): 5.12 µM (inactive)
- GI50 (HT-29): 3.5 µM (inactive)
- GI50 (SW-620): 1.96 µM (inactive)
- GI50 (NCI-H522): 1.1 µM (active)
- GI50 (SNB-78): 13.6 µM (inactive)
- GI50 (K562): 1.6 µM (inactive)
- GI50 (OVCAR-5): 13.6 µM (inactive)
- GI50 (COLO 205): 3.42 µM (inactive)

From ChEMBL document CHEMBL1201862, “PubChem BioAssay data set” (2004)
